# Read-outs that look alike come from different tables or passages of the source.
# What was measured:
# [1] = tested on: LS174T colon tumor xenografts; experiment: Chemotherapeutic activity in the LS174T human colon tumor xenograft model; type: in vivo, mice
# From the text: Animals were kept under pathogen-free conditions with food and water supplied ad libitum, and kept for about one week before implantation of the tumors. Fragments (˜2 mm) of tumors grown in nude mice were implanted subcutaneously in both flanks of the mice. Tumors were generally allowed to grow to attain a diameter of 5-6 mm each (approximately two weeks).
# The mice weighed 20.0-25.0 g at the beginning of the study. They were selected and assigned to groups in order to have equally distributed tumor volumes in the different groups. In each group, mice were labeled individually. Treatments were assigned randomly to those groups.
# All dosing solutions were prepared the day of injection by dissolution in water ( 1/10 of the expected final volume) and further dilution with 0.9% (w/v) NaCl. The concentration of these solutions was checked (A475 nm determination) after sterilization by filtration (0.22 μm) and adjusted to the final required value using sterile 0.9% (w/v) NaCl).
# Treatments were administered by the i.p. route. The mice received a constant volume (10 μl/g) of either saline (control group) or drug. Mortality and clinical signs were recorded up to 4 hours post-treatment on dosing days, and daily thereafter. Their behavior was equally noted. Individual body weights were generally recorded daily until day 14 and at least twice a week thereafter.
# Tumor growth was monitored by two-dimensional measurements using calipers and a precision of 0.5 mm. Tumor volumes were calculated according to the following formula: Vt=[length×(width)^2]/2
# Median relative tumor volumes (RTV) were calculated as tumor volumes determined at individual days divided by tumor volumes on day 0. For treated groups, growth inhibition was estimated as the percentage ratio of median RTV of treated (T) mice versus controls (C) on each day of tumor treatment. T/C(%)=[Median RTV(treated group)/Median RTV(control group)]×100
# The minimal T/C value (%) for each treatment was used as a parameter for maximum efficacy. Duration of growth inhibition was assessed by considering growth delays (T-C) for one (200%) and two (400%) doublings of the median RTV).
# To determine the statistical significance of any difference in median RTV between two groups, the Mann-Whitney test was used. The test was conducted at a p level of 0.05 (two tailed) using the GraphPad Prism 3.00 software.
# Female Swiss nude mice were 5 weeks old upon delivery (See General Methods, Section O). They were kept under pathogen-free conditions with food and water supplied ad libitum, and kept for about one week before implantation of the tumors. Fragments (˜2 mm) of LS174T tumors grown in nude mice were implanted subcutaneously in both flanks of the mice used in the study. Tumors were left to grow for 17 days. At that time, the mice weighed about 20.5-26.5 g.
# Mice were then selected and assigned to groups in order to have equally distributed tumor volumes in different groups (5-6 mice, 9-10 tumors/group). The dose levels of Compound II, DOX used in the study, were selected on the basis of a lethality study previously conducted on OF-1 normal mice. The dose of DOX was based on previous chemotherapy experiments performed in nude mice with the same dosing schedule.
# Treatments were administered by the i.p. route on days 0, 1, 2, 3 and 4, the mice receiving a constant volume (10 μl/g) of either saline or the different dosing solutions. DOX was used at 3.8 μmol/kg, Compound II, DOX was used at 25.9 μmol/kg and 34.5 μmol/kg. Clinical signs (recorded 0.5, 1, 2 and 4 hours after dosing and daily between dosing days) and body weights (recorded on each day of tumor measurement) were used to assess treatment toxicity, tumor growth was monitored on days 7, 12, 15, 19, 22, 26, 29, 33 and 36 by two-dimensional measurements using calipers and a precision of 0.5 mm.
# [2] = tested on: OF-1 mice; conditions: obtained under the same conditions, known value; cited from earlier work
# [3] = tested on: B16-B16 murine melanoma
# Description: Male C57-B16 black mice were 5 weeks old upon delivery. The body weight of the animals was approximately 20 g at the beginning of the test (See General Methods, Section O).
# The animals were divided in eight groups (5 mice per group). Confluent murine melanoma B16-B16 cells (See General Methods, Section E.) were washed twice with PBS and EDTA (See General Methods, Section F.) twice and detached with trypsin (2 min incubation at 37° C.), that was thereafter neutralized by DMEM-F12 (containing 10% of calf serum). The cells were centrifuged for 5 min at 300 g. The pellet was resuspended twice in the DMEM-F12 without serum and centrifuged 5 min at 300 g.
# The number of cells per ml of DMEM-F12 was then estimated (Brucker chamber) and the dilution of 2.5×10^5 cells/ml prepared. Each animal received 200 μl of this suspension (5.0×10^4 cells) in its tail vein. The day of injection was considered day 0 of the study. […] Animals were weighed on days 0, 1, 3, 6, 8 and 14. Their behavior and eventual clinical signs were also noted. All animals were sacrificed on day 14 and autopsied.
# The lung lobes were fixed in a Bouin's solution (picric acid: formaldehyde, 40%: acetic acid, 15:5:1, v/v). Every lobe immersed in the fixing solution in a Petri flask was uniformly lighted against an opaque black background. Pictures of the front and back side of every lobe were taken with the help of a light microscope, scanned and digitized. The relative surface occupied by B116-B16 colonies was then estimated with the Scion Image Program.
# The individual mean values were analyzed with the Scheffe's F-test to evaluate the statistical significance of differences observed between the groups.
# [4] = DOX 3.8 μmol/kg, Compound II, DOX lower dosage 25.9 μmol/kg, i.p. days 0-4
smiles,measurement,setting,value
"COc1cccc2c1C(=O)c1c(O)c3c(c(O)c1C2=O)C[C@@](O)(C(=O)CO)C[C@@H]3O[C@H]1C[C@H](N)[C@H](O)[C@H](C)O1 [DOX, Doxorubicin]",antitumor activity,[1]; DOX 3.8 μmol/kg i.p. days 0-4,total lack of activity
same,tumor regression,[1]; DOX 3.8 μmol/kg i.p. days 0-4,No tumor regression
same,treatment-related mortality,[1]; [4],No treatment-related mortality
same,weight loss,[1]; [4],no significant weight loss
same,LD50,[2],4.1 µmol/kg
same,lung surface occupied by B16-B16 metastases,"[3]; 5.2 μmol/kg i.p. days 1 and 3, day 14",44.0±6.3%
same,"mean body weight, % of initial","[3]; 5.2 μmol/kg, day 14",104.7%
same,lung surface occupied by B16-B16 metastases,"[3]; 8.6 μmol/kg i.p. days 1 and 3, day 14",23.4±5.7%
same,"mean body weight, % of initial","[3]; 8.6 μmol/kg, end of study",110%
same,activity on lung metastases,[3]; 5.2 and 8.6 μmol/kg,did not show any significant activity

# Reference: US7893023B2, “Prodrugs activated by plasmin and their use in cancer chemotherapy” (priority 2000, dated 2011)
